The record followed here is ChEMBL document CHEMBL4052617, “Antibacterial activity of N-methylbenzofuro[3,2-b]quinoline and N-methylbenzoindolo[3,2-b]-quinoline derivatives and study of their mode of action” (2017).

Broadly, the MIC is the lowest concentration found to suppress growth. Read a high MIC as weaker potency.

The test system of assay [1] is Enterococcus faecium. Kind of assay: Antibacterial activity against antibiotic-susceptile Enterococcus faecium ATCC 49624 after 18 hrs by brain heart infusion broth microdilution method. Format: functional. As to conditions: ATCC 49624, 18 h. Background: Dilution methods test growth across graded concentrations, often in twofold steps.
Assay [2] relates to Enterococcus faecium. The assay is described as follows: Antibacterial activity against vancomycin-resistant Enterococcus faecium ATCC 700221 after 18 hrs by brain heart infusion broth microdilution method. Format: functional. The note with it: ATCC 700221, 18 h.
A further assay has as its system Bacillus subtilis. Kind of assay: Antibacterial activity against Bacillus subtilis 168 after 18 hrs by Mueller-Hinton broth microdilution method. The format is functional. As to conditions: subsp. subtilis str. 168, 18 h.
For assay [3], the system named is Staphylococcus aureus. Kind of assay: Antibacterial activity against Staphylococcus aureus ATCC 29213 after 18 hrs by cation adjusted Mueller-Hinton broth microdilution method. Format: functional. The note with it: ATCC 29213, 18 h.
The test system of assay [4] is Staphylococcus aureus. The assay is described as follows: Antibacterial activity against methicillin-resistant Staphylococcus aureus ATCC BAA41 after 18 hrs by cation adjusted Mueller-Hinton broth microdilution method. The format is functional. As to conditions: ATCC BAA41, 18 h.
The subject of assay [5] is Escherichia coli. Kind of assay: Antibacterial activity against Escherichia coli ATCC 25922 after 18 hrs by Mueller-Hinton broth microdilution method. The format is functional. As to conditions: ATCC 25922, 18 h.
In assay [6] the test system is Escherichia coli. Kind of assay: Antibacterial activity against Escherichia coli ATCC […] expressing NDM-1 beta-lactamase after 18 hrs by Mueller-Hinton broth microdilution method. Format: functional.
The subject of a further assay is Pseudomonas aeruginosa. The assay is described as follows: Antibacterial activity against multidrug-resistant Pseudomonas aeruginosa ATCC BAA2108 after 18 hrs by Mueller-Hinton broth microdilution method. The format is functional. The note with it: ATCC BAA2108, 18 h.
A further assay has as its system Klebsiella pneumoniae. The assay is described as follows: Antibacterial activity against Klebsiella pneumoniae ATCC BAA2470 expressing NDM-1 beta-lactamase after 18 hrs by Mueller-Hinton broth microdilution method. The format is functional. As to conditions: ATCC BAA2470, 18 h.
Assay [7] deals with T1, Cell division protein FtsZ (Staphylococcus aureus) (UniProt P0A031).
T1 sequence (whole entry): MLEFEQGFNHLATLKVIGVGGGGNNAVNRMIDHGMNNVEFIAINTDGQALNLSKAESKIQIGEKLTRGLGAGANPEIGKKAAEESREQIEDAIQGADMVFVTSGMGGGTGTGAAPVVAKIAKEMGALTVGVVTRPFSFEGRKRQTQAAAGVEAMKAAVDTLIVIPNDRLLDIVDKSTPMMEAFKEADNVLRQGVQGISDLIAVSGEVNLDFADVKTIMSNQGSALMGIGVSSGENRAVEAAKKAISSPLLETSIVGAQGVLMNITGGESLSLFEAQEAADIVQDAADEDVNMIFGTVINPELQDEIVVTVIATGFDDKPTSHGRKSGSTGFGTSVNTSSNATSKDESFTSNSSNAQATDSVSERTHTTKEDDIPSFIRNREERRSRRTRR
The assay is described as follows: Inhibition of recombinant N-terminal His6-tagged Staphylococcus aureus ATCC 29213 FtzS polymerization expressed in Escherichia coli BL21 (DE3) cells at 16 ug/ml in presence of GTP by fluorescence spectrometry method.

The target in assay [8] is T1, Cell division protein FtsZ (Staphylococcus aureus). The assay is described as follows: Inhibition of recombinant N-terminal His6-tagged Staphylococcus aureus FtzS expressed in Escherichia coli BL21 (DE3) cells assessed as reduction in protein polymer thickness at 8 ug/ml preincubated for 10 mins followed by GTP addition after 15 mins by phosphotungstic acid staining based transmission electron microscopic method.

For assay [9] the target is unchanged. The assay is described as follows: Inhibition of recombinant N-terminal His6-tagged Staphylococcus aureus FtzS expressed in Escherichia coli BL21 (DE3) cells assessed as reduction in protein protofilament bundling at 8 ug/ml preincubated for 10 mins followed by GTP addition after 15 mins by phosphotungstic acid staining based transmission electron microscopic method.

SMILES strings stand for the structures. The source made the active and inactive calls. No cut-off for these calls is given here.

For `COc1ccc(Nc2c3ccccc3[n+](C)c3c2oc2ccccc23)cc1.[I-]`, the minimum inhibitory concentration (MIC) against Enterococcus faecium [1] was found to be 6 µg/mL; in the assay with Enterococcus faecium [2] it was 6 µg/mL; against Bacillus subtilis it was 4 µg/mL; against Staphylococcus aureus [3] it was 4 µg/mL; against Staphylococcus aureus [4], 4 µg/mL; against Escherichia coli [5], 8 µg/mL. The MIC with Escherichia coli [6] worked out at 8 µg/mL; with Pseudomonas aeruginosa it was 64 µg/mL; against Klebsiella pneumoniae, 64 µg/mL. Moreover, the inhibition result in assay [7], in assay [8] and in assay [9] was “Active” throughout.
Consider `Cc1ccccc1Nc1c2ccccc2[n+](C)c2c1[nH]c1ccccc12.[I-]`, for which the MIC worked out at 8 µg/mL in the assay on Enterococcus faecium [1]; 8 µg/mL in the assay with Enterococcus faecium [2]; 6 µg/mL with Bacillus subtilis; 6 µg/mL in the assay on Staphylococcus aureus [3]; 6 µg/mL with Staphylococcus aureus [4]; 12 µg/mL in the assay with Escherichia coli [5]. Further, the MIC in the assay with Escherichia coli [6] is 12 µg/mL; against Pseudomonas aeruginosa, > 64 µg/mL; in the assay with Klebsiella pneumoniae it was > 64 µg/mL.
For `C[n+]1c2ccccc2c(Nc2ccc(F)cc2)c2oc3ccccc3c21.[I-]`, the MIC in the assay with Enterococcus faecium [1] came to 8 µg/mL; with Enterococcus faecium [2], 8 µg/mL; in the assay with Bacillus subtilis, 6 µg/mL; in the assay with Staphylococcus aureus [3] it was 6 µg/mL; in the assay on Staphylococcus aureus [4], 6 µg/mL; with Escherichia coli [5], 12 µg/mL. Besides, the MIC against Escherichia coli [6] was 12 µg/mL; against Pseudomonas aeruginosa it was > 64 µg/mL; in the assay on Klebsiella pneumoniae, > 64 µg/mL.
As for `Cc1ccc(Nc2c3ccccc3[n+](C)c3c2[nH]c2ccccc23)cc1F.[I-]`, the MIC amounted to 8 µg/mL in the assay with Enterococcus faecium [1]; 8 µg/mL with Enterococcus faecium [2]; 4 µg/mL with Bacillus subtilis; 4 µg/mL in the assay with Staphylococcus aureus [3]; 4 µg/mL with Staphylococcus aureus [4]; 8 µg/mL against Escherichia coli [5]. Moreover, the MIC in the assay with Escherichia coli [6] came out at 8 µg/mL; against Pseudomonas aeruginosa, 64 µg/mL; in the assay on Klebsiella pneumoniae, 64 µg/mL.
As to `C[n+]1c2ccccc2c(Nc2cccc(F)c2)c2oc3ccccc3c21.[I-]`, the MIC was determined as 12 µg/mL in the assay on Enterococcus faecium [1]; 12 µg/mL with Enterococcus faecium [2]; 8 µg/mL with Bacillus subtilis; 8 µg/mL in the assay on Staphylococcus aureus [3]; 8 µg/mL against Staphylococcus aureus [4]; 16 µg/mL in the assay on Escherichia coli [5]. The MIC is 16 µg/mL in the assay on Escherichia coli [6], > 64 µg/mL in the assay with Pseudomonas aeruginosa and > 64 µg/mL against Klebsiella pneumoniae.
Consider `COc1cccc(Nc2c3ccccc3[n+](C)c3c2oc2ccccc23)c1.[I-]`, for which the MIC worked out at 8 µg/mL against Enterococcus faecium [1]; 8 µg/mL against Enterococcus faecium [2]; 6 µg/mL against Bacillus subtilis; 6 µg/mL with Staphylococcus aureus [3]; 6 µg/mL in the assay on Staphylococcus aureus [4]; 12 µg/mL against Escherichia coli [5]. For the same compound, the MIC with Escherichia coli [6] is 12 µg/mL; against Pseudomonas aeruginosa it was > 64 µg/mL; with Klebsiella pneumoniae, > 64 µg/mL.
Consider `C[n+]1c2ccccc2c(Nc2ccc(F)cc2F)c2[nH]c3ccccc3c21.[I-]`, for which the MIC worked out at 8 µg/mL in the assay on Enterococcus faecium [1]; 8 µg/mL in the assay on Enterococcus faecium [2]; 4 µg/mL in the assay on Bacillus subtilis; 4 µg/mL in the assay with Staphylococcus aureus [3]; 4 µg/mL against Staphylococcus aureus [4]; 8 µg/mL with Escherichia coli [5]. For the same compound, the MIC worked out at 8 µg/mL against Escherichia coli [6], 64 µg/mL in the assay on Pseudomonas aeruginosa and 64 µg/mL in the assay with Klebsiella pneumoniae.
`C[n+]1c2ccccc2c(Nc2ccc(Cl)cc2)c2oc3ccccc3c21.[I-]`: the MIC against Enterococcus faecium [1] stood at 8 µg/mL; in the assay on Enterococcus faecium [2] it was 8 µg/mL; in the assay with Bacillus subtilis, 6 µg/mL; in the assay with Staphylococcus aureus [3], 6 µg/mL; against Staphylococcus aureus [4], 6 µg/mL; in the assay with Escherichia coli [5], 12 µg/mL. For the same compound, the MIC is 12 µg/mL against Escherichia coli [6], > 64 µg/mL against Pseudomonas aeruginosa and > 64 µg/mL with Klebsiella pneumoniae.
With `Cc1cc(F)ccc1Nc1c2ccccc2[n+](C)c2c1[nH]c1ccccc12.[I-]`, the MIC in the assay with Enterococcus faecium [1] was 8 µg/mL; against Enterococcus faecium [2], 8 µg/mL; against Bacillus subtilis it was 4 µg/mL; against Staphylococcus aureus [3], 4 µg/mL; in the assay on Staphylococcus aureus [4], 4 µg/mL; against Escherichia coli [5] it was 8 µg/mL. Besides, the MIC against Escherichia coli [6] is 8 µg/mL; with Pseudomonas aeruginosa it was 64 µg/mL; in the assay with Klebsiella pneumoniae, 64 µg/mL.
Turning to `Cc1ccc(Nc2c3ccccc3[n+](C)c3c2oc2ccccc23)cc1.[I-]`, the MIC came out at 8 µg/mL with Enterococcus faecium [1]; 8 µg/mL against Enterococcus faecium [2]; 6 µg/mL against Bacillus subtilis; 6 µg/mL in the assay with Staphylococcus aureus [3]; 6 µg/mL in the assay with Staphylococcus aureus [4]; 12 µg/mL in the assay with Escherichia coli [5]. Also, the minimum inhibitory concentration (MIC) is 12 µg/mL in the assay with Escherichia coli [6], > 64 µg/mL with Pseudomonas aeruginosa and > 64 µg/mL with Klebsiella pneumoniae.
Turning to `Cc1cc(F)ccc1Nc1c2ccccc2[n+](C)c2c1oc1ccccc12.[I-]`, the MIC amounted to 8 µg/mL against Enterococcus faecium [1]; 8 µg/mL in the assay on Enterococcus faecium [2]; 6 µg/mL against Bacillus subtilis; 6 µg/mL with Staphylococcus aureus [3]; 6 µg/mL in the assay on Staphylococcus aureus [4]; 12 µg/mL in the assay with Escherichia coli [5]. Also, the values for the MIC in the assay with Escherichia coli [6], against Pseudomonas aeruginosa and against Klebsiella pneumoniae were 12 µg/mL, > 64 µg/mL and > 64 µg/mL, respectively.
Turning to `Cc1ccccc1Nc1c2ccccc2[n+](C)c2c1oc1ccccc12.[I-]`, the MIC in the assay on Enterococcus faecium [1] was determined as 12 µg/mL; with Enterococcus faecium [2] it was 12 µg/mL; in the assay with Bacillus subtilis, 8 µg/mL; in the assay on Staphylococcus aureus [3], 8 µg/mL; with Staphylococcus aureus [4] it was 8 µg/mL; against Escherichia coli [5], 16 µg/mL. Also, the MIC in the assay with Escherichia coli [6] is 16 µg/mL; against Pseudomonas aeruginosa it was > 64 µg/mL; against Klebsiella pneumoniae it was > 64 µg/mL.
Take `CCOc1ccc(Nc2c3ccccc3[n+](C)c3c2[nH]c2ccccc23)cc1.[I-]`: the MIC is 4 µg/mL in the assay on Enterococcus faecium [1]; 4 µg/mL with Enterococcus faecium [2]; 2 µg/mL with Bacillus subtilis; 2 µg/mL in the assay with Staphylococcus aureus [3]; 2 µg/mL with Staphylococcus aureus [4]; 6 µg/mL against Escherichia coli [5]. Further, the MIC against Escherichia coli [6] came to 6 µg/mL; with Pseudomonas aeruginosa, 48 µg/mL; in the assay on Klebsiella pneumoniae, 48 µg/mL.
`CCOc1ccccc1Nc1c2ccccc2[n+](C)c2c1oc1ccccc12.[I-]`: the MIC against Enterococcus faecium [1] was found to be 8 µg/mL; against Enterococcus faecium [2], 8 µg/mL; against Bacillus subtilis, 6 µg/mL; with Staphylococcus aureus [3] it was 6 µg/mL; against Staphylococcus aureus [4] it was 6 µg/mL; in the assay on Escherichia coli [5], 12 µg/mL. Further, the minimal inhibitory concentration (MIC) was 12 µg/mL with Escherichia coli [6], > 64 µg/mL in the assay with Pseudomonas aeruginosa and > 64 µg/mL in the assay on Klebsiella pneumoniae.
On to `C[n+]1c2ccccc2c(Nc2ccc(Cl)cc2)c2[nH]c3ccccc3c21.[I-]`, for which the MIC stood at 6 µg/mL in the assay with Enterococcus faecium [1]; 6 µg/mL with Enterococcus faecium [2]; 4 µg/mL with Bacillus subtilis; 4 µg/mL in the assay with Staphylococcus aureus [3]; 4 µg/mL with Staphylococcus aureus [4]; 8 µg/mL in the assay with Escherichia coli [5]. Besides, the results for the MIC against Escherichia coli [6], in the assay with Pseudomonas aeruginosa and in the assay on Klebsiella pneumoniae were 8 µg/mL, 64 µg/mL and 64 µg/mL, respectively.
`Cc1cc(C)cc(Nc2c3ccccc3[n+](C)c3c2oc2ccccc23)c1.[I-]`: the MIC in the assay with Enterococcus faecium [1] was determined as 8 µg/mL; against Enterococcus faecium [2], 8 µg/mL; against Bacillus subtilis, 6 µg/mL; with Staphylococcus aureus [3] it was 6 µg/mL; against Staphylococcus aureus [4] it was 6 µg/mL; with Escherichia coli [5], 12 µg/mL. The MIC is 12 µg/mL in the assay on Escherichia coli [6], > 64 µg/mL in the assay with Pseudomonas aeruginosa and > 64 µg/mL in the assay on Klebsiella pneumoniae.
